From article PMC10144566, “Pharmacokinetic Profile Evaluation of Novel Combretastatin Derivative, LASSBio-1920, as a Promising Colorectal Anticancer Agent” (Pharmaceutics, 2023)
“Also recorded” adds a separate entry of the source. Where two headings read alike, the source gives them in different places.

Assays:
[1] = test system: HPBMC, human peripheral blood mononuclear cells; experiment: MTT cytotoxicity assay, HPBMC; format: cell-based; details: PBMC, 72 h incubation, read-out: IC50 (95% CI) HPBMC
Description: Heparinized blood was collected from healthy, non-smoking donors who had not taken any drugs during the 15 days prior to sampling. Human peripheral blood mononuclear cells (HPBMC) were isolated by a standard density-gradient centrifugation method over Ficoll-Hypaque® media (Merck-Sigma-Aldrich, St. Louis, MO, USA). HPBMC were washed and resuspended in RPMI-1640 medium supplemented with 20% fetal bovine serum, 2 mM glutamine, 100 U/mL penicillin, and 100 µg/mL streptomycin at 37 °C with 5% CO2. Phytohemagglutinin (3%) was added at the beginning of the culture.
The cytotoxicity of the compounds was determined using the MTT assay. Cells were seeded in 96-well plates as follows: 0.7 × 10^5 cells/well for adherent cancer cells, 0.3 × 10^5 cells/well for suspended cancer cells, and 0.2 × 10^5 cells/well for HPBMCs. The treatments were dissolved in DMSO and added to each well using an automated liquid handler for high-throughput screening (Biomek 3000—Beckman Coulter, Inc., Fullerton, CA, USA) and incubated for either 24, 48, and 72 h. The control group was treated with the vehicle. […] After incubation, the supernatant was decanted and replaced with fresh medium containing MTT (0.5 mg/mL). Three hours later, the MTT’s formazan product was dissolved in 150 µL of pure DMSO, and absorbance was measured at 595 nm (DTX 880 Multimode Detector, Beckman Coulter, Inc., Pasadena, CA, USA).
Data were presented as mean ± standard error of the mean (SEM) from three independent experiments performed in triplicate, calculated using Prism 8.0 (GraphPad/Intuitive Software for Science, San Diego, CA, USA). The IC50 of the compounds was obtained using a non-linear regression of the cytotoxicity curves.

HCT-116 cells = experiment: Annexin V/7-AAD apoptosis assay by flow cytometry, HCT-116; format: cell-based, human; details: 6 µM, 48 h, negative control 5.14 ± 0.61%
Description: (§1) The control group received the same amount of vehicle, of which the concentration was kept constant (below 0.5%). Cell treatments were completed in triplicate. CA4 (0.2 or 0.5 µM) was used as the positive control. Stock solutions of the compounds tested were dissolved in DMSO and diluted in the culture medium to obtain the desired concentrations.
(§2) Apoptosis assay: Apoptosis was analyzed using Annexin V/7-AAD staining followed by flow cytometry. Cells were collected and stained using an Annexin V-PE/7-AAD apoptosis detection kit. Annexin V binds to phosphatidylserine (PS) in apoptosis cells as PS translocates from the inner to the outer leaflet of the cytoplasmic membrane. 7-AAD is a fluorescent intercalator of DNA impermeable to the cell, providing a reliable indication of membrane integrity. Double staining distinguishes between viable, early apoptotic, necrotic, and late apoptotic cells. The resulting fluorescence of annexin V-PE at 583 nm and 7-AAD at 680 nm of every sample was analyzed by flow cytometry. The 7-AAD-positive and annexin V-negative cells were considered necrotic. Annexin V-positive cells (7-AAD-positive and 7-AAD-negative cells) were classified as apoptotic. 7-AAD-negative and annexin V-negative cells were deemed viable.

PC-9 cells = experiment: Annexin V/7-AAD apoptosis assay by flow cytometry, PC-9; format: cell-based, human; details: 0.75 µM, 48 h, negative control 2.40 ± 0.17%
Description: as §1, §2

[2] = target: human CK-1δ protein kinase (Homo sapiens, UniProt P48730); experiment: Inhibition of human CK-1δ protein kinase (Kinase-Glo); format: biochemical; details: data not shown, read-out: inhibitory activity against human CK-1δ protein kinase
Sequence of human CK-1δ protein kinase (P48730 whole entry): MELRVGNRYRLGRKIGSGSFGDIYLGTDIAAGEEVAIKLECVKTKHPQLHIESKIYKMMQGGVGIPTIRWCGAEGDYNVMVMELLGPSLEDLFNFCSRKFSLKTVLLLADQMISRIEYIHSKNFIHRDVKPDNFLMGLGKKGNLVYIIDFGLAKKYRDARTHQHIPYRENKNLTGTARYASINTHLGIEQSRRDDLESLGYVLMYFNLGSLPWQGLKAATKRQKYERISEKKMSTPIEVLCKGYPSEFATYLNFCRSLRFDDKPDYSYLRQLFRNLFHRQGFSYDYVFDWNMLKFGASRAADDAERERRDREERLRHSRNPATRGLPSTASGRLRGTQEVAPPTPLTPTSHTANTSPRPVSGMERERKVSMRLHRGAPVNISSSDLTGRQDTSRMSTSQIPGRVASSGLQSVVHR
Description: Inhibition of human CK-1δ protein kinase assay: Test compound (10 µL), CK-1δ enzyme (10 µL), and buffer solution (20 µL) were added to each well of a 96-well plate containing 0.1% casein as substrate and 4 µM ATP. The assay buffer solution constituents were 50 mM HEPES at pH 7.5, 0.01% Brij-35, […], 1 mM EDTA, and 0.01% NaN3. The final concentrations of DMSO were limited to 1%. After 60 min of incubation at 30 °C, the reaction was stopped by the addition of 40 µL of Kinase-Glo®. The luminescence was measured after 10 min using a Fluostar Optima multimode reader (BMG Labtechnologies GmbH, Offenburg, Germany). First, LASSBio-1920 was tested at concentrations of 10 µM, and 5 µM of SB415826, a potent CK-1δ enzyme inhibitor, was employed as a positive control.

[3] = Chemical stability in buffer (HPLC); format: physicochemical; details: 0–240 min
[4] = In vitro plasma stability; format: in vitro ADME; details: rat plasma, 37 °C, 100 μM
Description: The in vitro stability of the test compounds was studied in rat plasma. Blood from different Wistar rats was centrifuged with heparin at 20 °C for 15 min at 2000 rpm to separate the plasma, which was diluted to 80% with 0.05 M phosphate-buffered saline (PBS, pH 7.4) at 37 °C [23]. The test compounds were added to 200 µL of preheated plasma solution to yield a final concentration of 100 μM. The final concentration of DMSO in the incubation mixture was 0.5%. The assays were performed with agitation in a water bath at 37 °C and conducted in triplicate. Samples were taken at 0, 30, 60, and 240 min. After each sampling time, 500 µL of cold methanol was added to the mixture immediately, followed by 500 µL of cold acetonitrile. The samples were mixed and centrifuged at room temperature for 15 min at 13,000 rpm. The supernatant was analyzed by HPLC (acetonitrile/water, 7:3, with 0.1% trifluoroacetic acid) using an internal standard (4-acetylbiphenyl—final concentration of 20 µM).

[5] = test system: PC-3, prostate adenocarcinoma; experiment: MTT cytotoxicity assay, PC-3; details: Homo sapiens, 72 h, read-out: IC50 (95% CI) PC-3
Description: (§3) The cytotoxicity of the compounds was determined using the MTT assay [13]. Cells were seeded in 96-well plates as follows: 0.7 × 10^5 cells/well for adherent cancer cells, 0.3 × 10^5 cells/well for suspended cancer cells, and 0.2 × 10^5 cells/well for HPBMCs. […] The control group was treated with the vehicle. […] After incubation, the supernatant was decanted and replaced with fresh medium containing MTT (0.5 mg/mL).

N-87, gastric carcinoma = experiment: MTT cytotoxicity assay, N-87; details: Homo sapiens, 72 h, read-out: IC50 (95% CI) N-87
Description: as §3

SF-295, glioblastoma = experiment: MTT cytotoxicity assay, SF-295; details: Homo sapiens, SF-295, 72 h, read-out: IC50 (95% CI) SF-295
Description: as §3

[6] = test system: H-1975, non-small cell lung adenocarcinoma; experiment: MTT cytotoxicity assay, H-1975; details: Homo sapiens, NCI-H1975, 72 h, read-out: IC50 (95% CI) H-1975
Description: as §3

[7] = test system: HCT-116 human colorectal cancer cells (colon carcinoma); experiment: MTT cytotoxicity assay, HCT-116; details: for IC50: Homo sapiens
Description: as §3

inhibition at 10 µM [2]: < 10%
SMILES: COc1cc(C(=O)N/N=C/c2cc3ccccc3s2)cc(OC)c1OC [LASSBio-1920, (E)-N′-(Benzo[b]thiophen-2-ylmethylene)-3,4,5-trimethoxybenzohydrazide]
IC50 [1]: 140 nM
apoptotic HCT-116 cells (HCT-116 cells): 12.62 ± 2.26%
apoptotic events PC-9 cells (PC-9 cells): 15.49 ± 1.28%
chemical stability at pH 2 ([3]; HCl buffer pH 2, 37 °C): unstable at pH 2; also recorded: unstable in an acid medium (HCl buffer, pH 2)
chemical stability at pH 7.4 ([3]; phosphate buffer pH 7.4, 37 °C): stable at pH 7.4 at all time points; also recorded: stable in a practically neutral medium (phosphate buffer, pH 7.4)
plasma stability [4]: stable at all time points of the assay; also recorded: not metabolized by plasma esterases, exhibiting substantial stability; also recorded: has plasma stability
IC50 [5]: 1680 nM
IC50 (N-87, gastric carcinoma): 440 nM
IC50 (SF-295, glioblastoma): 110 nM
IC50 [6]: 210 nM
IC50 ([7]; HCT-116, 24 h, read-out: IC50 (95% CI) HCT-116 24 h): > 100000 nM
IC50 ([7]; HCT-116, 48 h, read-out: IC50 (95% CI) HCT-116 48 h): 2700 nM
IC50 ([7]; HCT-116, 72 h, read-out: IC50 (95% CI) HCT-116): 60 nM
IC50 ([7]; HCT-116, 72 h, read-out: IC50 (95% CI) HCT-116 72 h): 60 nM
SI HPBMC/HCT-116 ([7]; IC50 for HPBMC/IC50 for the tumor cell line, 72 h): 2.3
